Columns and labels:
thrombus = assay: Arteriovenous Shunt Model; assay type: in vivo, dogs; settings: mean ± SEM; for Arterial Conditions T/B ratio / Venous Conditions T/B ratio: T/B = thrombus/background; for Arterial Conditions Uptake (% id/g) / Venous Conditions Uptake (% id/g): extracorporeal A-V shunt, 1 hr shunt period
Description: Arteriovenous Shunt Model: Adult mongrel dogs of either sex (9-13 kg) were anesthetized with pentobarbital sodium (35 mg/kg, i.v.) and ventilated with room air via an endotracheal tube (12 strokes/min,25 ml/kg). For arterial pressure determination, the left carotid artery was cannulated with a saline-filled polyethylene catheter (PE-240) and connected to a Statham pressure transducer (P23ID; Oxnard, Calif.). Mean arterial blood pressure was determined via damping the pulsatile pressure signal. Heart rate was monitored using a cardiotachometer (Biotach, Grass Quincy, Ma.) triggered from a lead II electrocardiogram generated by limb leads. A jugular vein was cannulated (PE-240) for drug administration. The both femoral arteries and femoral veins were cannulated with silicon treated (Sigmacote, Sigma Chemical Co. St Louis, Mo.), saline filled polyethylene tubing (PE-200) and connected with a 5 cm section of silicon treated tubing (PE-240) to form an extracorporeal arterio-venous shunts (A-V). Shunt patency was monitored using a doppler flow system (model VF-1, Crystal Biotech Inc, Hopkinton, Ma.) and flow probe (2-2.3 mm, Titronics Med. Inst., Iowa City, Iowa) placed proximal to the locus of the shunt. All parameters were monitored continuously on a polygraph recorder (model 7D Grass) at a paper speed of […] or 25 mm/sec.
On completion of a 15 min post surgical stabilization period, an occlusive thrombus was formed by the introduction of a thrombogenic surface (4-0 braided silk thread, 5 cm in length, Ethicon Inc., Somerville, N.J.) into the shunt one shunt with the other serving as a control. Two consecutive 1 hr shunt periods were employed with the test agent administered as an infusion over 5 min beginning 5 min before insertion of the thrombogenic surface. At the end of each 1 hr shunt period the silk was carefully removed and weighed and the % incorporation determined via well counting. Thrombus weight was calculated by subtracting the weight of the silk prior to placement from the total weight of the silk on removal from the shunt. Arterial blood was withdrawn prior to the first shunt and every 30 min thereafter for determination of blood clearance, whole blood collagen-induced platelet aggregation, thrombin-induced platelet degranulation (platelet ATP release), prothrombin time and platelet count. Template bleeding time was also performed at 30 min intervals.

venous thrombus = assay: Canine Deep Vein Thrombosis Model; assay type: in vivo, dogs; settings: 1 mCi/Kg, i.v., given at reflow; jugular vein thrombi; 15, 60 and 120 min post-administration
Description: Canine Deep Vein Thrombosis Model: This model incorporates the triad of events (hypercoagulatible state, period of stasis, low shear environment) essential for the formation of a venous fibrin-rich actively growing thrombus. The procedure was as follows: Adult mongrel dogs of either sex (9-13 kg) were anesthetized with pentobarbital sodium (35 mg/kg,i.v.) and ventilated with room air via an endotracheal tube (12 strokes/min, 25 ml/kg). For arterial pressure determination, the right femoral artery was cannulated with a saline-filled polyethylene catheter (PE-240) and connected to a Statham pressure transducer (P23ID; Oxnard, Calif.). Mean arterial blood pressure was determined via damping the pulsatile pressure signal. Heart rate was monitored using a cardiotachometer (Biotach, Grass Quincy, Ma.) triggered from a lead II electrocardiogram generated by limb leads. The right femoral vein was cannulated (PE-240) for drug administration. A 5 cm segment of both jugular veins was isolated, freed from fascia and circumscribed with silk suture. A microthermister probe was placed on the vessel which serves as an indirect measure of venous flow. […] The agent was infused during the first 5 min of reflow and the rate of incorporation monitored using gamma scintigraphy.

Substance | Arterial Conditions T/B ratio (thrombus) | Arterial Conditions Uptake (% id/g) (thrombus) | Venous Conditions T/B ratio (thrombus) | Venous Conditions Uptake (% id/g) (thrombus) | uptake in venous thrombus (typical images, gamma scintigraphy) (venous thrombus)
Cyclo-((^125 I)D-Tyr-NMeArg-Gly-Asp-Mamb) [Example 8] | 173 ± 22 | 1.81 ± 0.18 % id/g | 19 ± 9 | 0.25 ± 0.15 % id/g | –
Cyclo-(D-Val-NMeArg-Gly-Asp-Mamb([^99m TcO(MA-MAMA)]-5-Aca)) [Example 32] | 102 | 7.4 % id/g | 0 | 0 % id/g | –
Cyclo-(D-Val-NMeArg-Gly-Asp-Mamb([^99m TcO(MeMAG2 gaba)]^- -5-Aca)) [Example 23] | 195 ± 39 | 5.41 ± 0.70 % id/g | 7 ± 0.4 | 0.21 ± 0.05 % id/g | –
Cyclo-(D-Val-NMeArg-Gly-Asp-Mamb([^99m TcO(mapt)]^- -5-Aca)) [Example 19] | 142 ± 24 | 5.75 ± 1.28 % id/g | 13 ± 4 | 0.58 ± 0.22 % id/g | uptake in a rapidly growing venous thrombus
Cyclo-([([^99m TcO(mapt)]^- -5-Aca)D-Lysσ-NMeArg-Gly-Asp-Mamb) [Example 21] | 113 ± 1 | 1.6 ± 0.12 % id/g | 4.0 ± 2 | 0.06 ± 0.03 % id/g | –
Cyclo-([[^99m TcO(MeMAG2 gaba)]^- -D-Lys]-NMeArg-Gly-Asp-Mamb) [Example 22] | 158 ± 5 | 1.28 ± 0.44 % id/g | 7 ± 4 | 0.045 ± 0.02 % id/g | –
Cyclo-([[^99m TcO(mapt)]^- -D-Lys]-NMeArg-Gly-Asp-Mamb) [Example 18] | 147 ± 44 | 0.47 ± 0.12 % id/g | 13 ± 3 | 0.04 ± .01 % id/g | –
Cyclo-([^111 In-DTPA-D-Lys]-NMeArg-Gly-Asp-Mamb) [Example 16] | 128 ± 24 | 0.95 ± 0.29 % id/g | 14 | 0.08 % id/g | –
[(^125 I)N-3-(4-hydroxyphenyl)propionyl]-Cyclo-(D-Lys-NMeArg-Gly-Asp-Mamb) [Example 9] | 44 ± 4 | 2.60 ± .005 % id/g | 8 ± 3 | 0.45 ± 0.11 % id/g | –
^99m Tc((EDDA)-Cyclo(D-Val-NMeArg-Gly-Asp-Mamb(hydrazino-nicotinyl-5-Aca)) [Example 13] | 163 ± 14 | 8.50 ± 0.20 % id/g | 33 ± 27 | 1.64 ± 1.32 % id/g | –
^99m Tc(tricine)2 -Cyclo(D-Val-NMeArg-Gly-Asp-Mamb(hydrazino-nicotinyl-5-Aca)) [Example 12] | 111 ± 6 | 6.15 ± 0.66 % id/g | 7.0 ± 2 | 0.46 ± 0.19 % id/g | uptake in a rapidly growing venous thrombus
^99m TcO(MAMA)-Cyclo-(D-Val-NMeArg-Gly-Asp-Mamb(5-Aca)) [Example 10] | 221 ± 16 | 5.00 ± 0.51 % id/g | 7 ± 0.6 | 0.16 ± 0.02 % id/g | –
